Data reported in ChEMBL document CHEMBL6134819, “Discovery of novel tranylcypromine-indazole-based derivatives as LSD1 inhibitors for acute myeloid leukemia treatment” (Eur J Med Chem, 2025).
Activity calls are given as the source filed them. No cut-off for these calls is given here.

Legend:
THP-1 = assay: Antiproliferative activity against human THP-1 cells assessed as inhibition of cell growth measured after 7 days by cell-titer glo assay; format: functional, cell-based; conditions: THP-1, 168 h
[1] = target: T1, Amine oxidase [flavin-containing] A (Homo sapiens, UniProt P21397); assay: Inhibition of human N-terminal Flag-tagged MAOA extracted baculovirus infected in Sf9 cells measured after 0.5 hrs by MAO-Glo Assay
T1 sequence (P21397 whole entry): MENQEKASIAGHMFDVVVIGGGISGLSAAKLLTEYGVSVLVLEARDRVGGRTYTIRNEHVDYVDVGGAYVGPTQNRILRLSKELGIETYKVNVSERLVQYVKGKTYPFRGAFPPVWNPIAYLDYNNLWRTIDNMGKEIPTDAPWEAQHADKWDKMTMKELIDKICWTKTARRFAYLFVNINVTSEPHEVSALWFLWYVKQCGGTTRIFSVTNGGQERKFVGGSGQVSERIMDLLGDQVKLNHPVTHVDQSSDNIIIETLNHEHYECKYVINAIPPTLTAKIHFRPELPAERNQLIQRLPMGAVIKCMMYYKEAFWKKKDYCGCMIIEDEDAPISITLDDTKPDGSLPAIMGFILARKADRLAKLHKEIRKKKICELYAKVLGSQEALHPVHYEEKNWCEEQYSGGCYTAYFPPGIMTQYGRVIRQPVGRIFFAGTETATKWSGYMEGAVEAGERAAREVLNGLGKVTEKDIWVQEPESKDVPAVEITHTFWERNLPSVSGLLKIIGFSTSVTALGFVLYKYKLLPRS

[2] = target: T2, Lysine-specific histone demethylase 1A (Homo sapiens, UniProt O60341); assay: Induction of thermal stabilization of LSD1 in human MV4-11 cells at 50 to 75 degree C by […] analysis; format: cell-based
[3] = Half life in male Sprague-Dawley rat at 10 mg/kg, po measured up to 24 hrs by LC-MS/MS analysis; format: ADME, organism-based; conditions: in vivo
[4] = target: T2, Lysine-specific histone demethylase 1A; assay: Inhibition of LSD1 in human MV4-11 cells assessed as increase in H3K4me1 expression level at 2 to 4 micromol/L measured after 48 hrs by Western blot analysis; format: cell-based; conditions: dose 2-4 µmol/L
[5] = target: T2, Lysine-specific histone demethylase 1A; assay: Inhibition of LSD1 in human MV4-11 cells assessed as increase in H3K4me2 expression level at 2 to 4 micromol/L measured after 48 hrs by Western blot analysis; format: cell-based; conditions: dose 2-4 µmol/L
MV4-11 [6] = assay: Induction of apoptosis in human MV4-11 cells assessed as viable cells at 3 micromol/L measured after 48 hrs by Annexin V-FITC/PI double staining based flow cytometry analysis (reference value: 89.13%); format: functional; conditions: MV4-11, 48 h, dose 3 µmol/L, read-out: Activity
MV4-11 [7] = assay: Induction of apoptosis in human MV4-11 cells assessed as viable cells at 4 micromol/L measured after 48 hrs by Annexin V-FITC/PI double staining based flow cytometry analysis (reference value: 89.13%); format: functional; conditions: MV4-11, 48 h, dose 4 µmol/L, read-out: Activity
MV4-11 [8] = assay: Induction of apoptosis in human MV4-11 cells assessed as late apoptotic cells at 2 micromol/L measured after 48 hrs by Annexin V-FITC/PI double staining based flow cytometry analysis (reference value: 7.70 %); format: functional; conditions: dose 2 µmol/L, at 2 µM
MV4-11 [9] = assay: Induction of apoptosis in human MV4-11 cells assessed as necrotic cells at 2 micromol/L measured after 48 hrs by Annexin V-FITC/PI double staining based flow cytometry analysis (reference value: 1.16 %); format: functional; conditions: dose 2 µmol/L, at 2 µM
MV4-11 [10] = assay: Induction of apoptosis in human MV4-11 cells assessed as necrotic cells at 4 micromol/L measured after 48 hrs by Annexin V-FITC/PI double staining based flow cytometry analysis (reference value: 1.16 %); format: functional; conditions: dose 4 µmol/L, at 4 µM
MV4-11 [11] = assay: Induction of apoptosis in human MV4-11 cells assessed as increase in cleaved caspase-7 level at 2 to 4 micromol/L measured after 72 hrs by Western blot analysis; format: functional, cell-based; conditions: dose 2-4 µmol/L
[12] = Upregulation of CD86 expression in human MV4-11 cells at 4 micromol/L incubated for 48 hrs by flow cytometry analysis relative to control; format: functional; conditions: dose 4 µmol/L, at 4 µM
[13] = Metabolic stability in human liver microsomes assessed as half life measured up to 60 mins in presence of NADPH by LC-MS/MS analysis; format: ADME, Microsome
[14] = Metabolic stability in rat liver microsomes assessed as intrinsic clearance measured up to 60 mins in presence of NADPH by LC-MS/MS analysis; format: ADME, Microsome; conditions: read-out: CLH
[15] = Solubility in PBS buffer at pH 7.4 measured after 2 hrs by LC-MS/MS analysis; format: physicochemical
[16] = Oral bioavailability in male Sprague-Dawley rat at 10 mg/kg measured up to 24 hrs by LC-MS/MS analysis; format: ADME, organism-based; conditions: in vivo
[17] = AUC (0 to infinity) in male Sprague-Dawley rat at 1 mg/kg, iv measured up to 24 hrs by LC-MS/MS analysis; format: ADME, organism-based; conditions: in vivo

Cl.O=S(=O)(c1ccccc1)n1ncc2cc(-n3cc(CN[C@@H]4C[C@H]4c4ccc(F)c(F)c4)nn3)ccc21
IC50 (THP-1): 1.96 µM
IC50 [1]: 0.84 µM
Activity [2]: Active
half-life [3]: 86.4 min
inhibition [4]: Active
inhibition [5]: Active
viability at 3 µM (MV4-11 [6]): 80.8%
viability at 4 µM (MV4-11 [7]): 77.4%
Activity (MV4-11 [8]): 13.76%
Activity (MV4-11 [9]): 3.32%
Activity (MV4-11 [10]): 2.91%
Activity (MV4-11 [11]): Active
Activity [12]: 33.76%
half-life [13]: 11.6 min
CLint scaled [14]: 352 mL/min/kg
solubility at 2 h [15]: 1.43 µM
bioavailability [16]: 6.01%
AUC(0-inf) [17]: 483 ng·h/mL
